pIC50: −log10 of the molar value.

The data set is described as follows: MTT cytotoxicity assay before and after UV treatment. Particulars: human, HeLa cells.

`CC[C@@]1(O)C(=O)OCc2c1cc1n(c2=O)Cc2cc3cc(O)ccc3nc2-1` [HCPT, 10-hydroxycamptothecin] had a negative logarithm of the IC50 (pIC50) of 5.14 to 5.21.
